Source: ChEMBL document CHEMBL1201861, “Genomics of Drug Sensitity in Cancer screening data, Wellcome Trust Sanger Institute”
pIC50: −log10 of the molar value.

Key:
Assay in all cases: cells
CTB-1 = format: functional, cell-based, Homo sapiens; conditions: Homo sapiens, CTB-1
Description: SANGER: Inhibition of human CTB-1 cell growth in a cell viability assay.

Calu-6 = format: functional, cell-based, Homo sapiens; conditions: Homo sapiens, Calu-6;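 further: growth of human Calu-6 cells, read out by a cell viability assay, IC50 marking inhibition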
Description: SANGER: Inhibition of human Calu-6 cell growth in a cell viability assay.

D283 Med = format: functional, cell-based, Homo sapiens; conditions: Homo sapiens, D283 Med
Description: SANGER: Inhibition of human D-283MED cell growth in a cell viability assay.

DJM-1 = format: functional, cell-based, Homo sapiens; conditions: Homo sapiens, DJM-1;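 further: growth inhibition of human DJM-1 cells, read out by a cell viability assay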
Description: SANGER: Inhibition of human DJM-1 cell growth in a cell viability assay.

DOHH-2 = format: functional, cell-based, Homo sapiens; conditions: Homo sapiens, DOHH-2;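 further: growth inhibition of human DOHH-2 cells, read out with a cell viability assay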
Description: SANGER: Inhibition of human DOHH-2 cell growth in a cell viability assay.

EKVX = format: functional, cell-based, Homo sapiens; conditions: Homo sapiens, EKVX;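 further: growth inhibition of human EKVX cells, read out with a cell viability assay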
Description: SANGER: Inhibition of human EKVX cell growth in a cell viability assay.

EW-1 = format: functional, cell-based, Homo sapiens; conditions: Homo sapiens, EW-1
Description: SANGER: Inhibition of human EW-1 cell growth in a cell viability assay.

EW-11 = format: functional, cell-based, Homo sapiens; conditions: Homo sapiens, EW-11;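 further: growth inhibition of human EW-11 cells, measured with a cell viability assay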
Description: SANGER: Inhibition of human EW-11 cell growth in a cell viability assay.

HD-MY-Z = format: functional, cell-based, Homo sapiens; conditions: Homo sapiens, HD-MY-Z;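 further: growth inhibition of HD-MY-Z cells, read out with a cell viability assay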
Description: SANGER: Inhibition of human HD-MY-Z cell growth in a cell viability assay.

HL-60 = format: functional, cell-based, Homo sapiens; conditions: Homo sapiens, HL-60;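 further: growth inhibition of human HL-60 cells, read out with a cell viability assay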
Description: SANGER: Inhibition of human HL-60 cell growth in a cell viability assay.

HT = format: functional, cell-based, Homo sapiens; conditions: Homo sapiens, HT
Description: SANGER: Inhibition of human HT cell growth in a cell viability assay.

HT-144 = format: functional, cell-based, Homo sapiens; conditions: Homo sapiens, HT-144
Description: SANGER: Inhibition of human HT-144 cell growth in a cell viability assay.

JVM-2 = format: functional, cell-based, Homo sapiens; conditions: Homo sapiens, JVM-2;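 further: growth inhibition of JVM-2 cells determined by a cell viability assay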
Description: SANGER: Inhibition of human JVM-2 cell growth in a cell viability assay.

KARPAS-45 = format: functional, cell-based, Homo sapiens; conditions: Homo sapiens, KARPAS-45;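 further: inhibition of cell line growth, read out through a viability assay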
Description: SANGER: Inhibition of human KARPAS-45 cell growth in a cell viability assay.

KINGS-1 = format: functional, cell-based, Homo sapiens; conditions: Homo sapiens, KINGS-1;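 further: cell viability assay measuring suppression of KINGS-1 cell growth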
Description: SANGER: Inhibition of human KINGS-1 cell growth in a cell viability assay.

KNS-42 = format: functional, cell-based; conditions: Homo sapiens;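 further: growth inhibition of KNS-42 cells, read out with a cell viability assay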
Description: SANGER: Inhibition of human KNS-42 cell growth in a cell viability assay.

LOX IMVI = format: functional, cell-based, Homo sapiens; conditions: Homo sapiens, LOX IMVI
Description: SANGER: Inhibition of human LOXIMVI cell growth in a cell viability assay.

Lu-65 = format: functional, cell-based, Homo sapiens; conditions: Homo sapiens, Lu-65;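 further: growth inhibition of Lu-65 cancer cells, read out by a cell viability assay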
Description: SANGER: Inhibition of human LU-65 cell growth in a cell viability assay.

MEG-01 = format: functional, cell-based, Homo sapiens; conditions: Homo sapiens, MEG-01;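 further: growth inhibition of MEG-01 cells, read out by a cell viability assay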
Description: SANGER: Inhibition of human MEG-01 cell growth in a cell viability assay.

MZ2-MEL = format: functional, cell-based, Homo sapiens; conditions: Homo sapiens, MZ2-MEL;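 further: growth inhibition of MZ2-MEL cells read out with a cell viability assay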
Description: SANGER: Inhibition of human MZ2-MEL cell growth in a cell viability assay.

NCI-H1092 = format: functional, cell-based, Homo sapiens; conditions: Homo sapiens, NCI-H1092;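 further: cell growth inhibition measured with a cell viability assay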
Description: SANGER: Inhibition of human NCI-H1092 cell growth in a cell viability assay.

NCI-H1155 = format: functional, cell-based, Homo sapiens; conditions: Homo sapiens, NCI-H1155;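 further: cell growth inhibition measured by a viability assay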
Description: SANGER: Inhibition of human NCI-H1155 cell growth in a cell viability assay.

NCI-H1581 = format: functional, cell-based, Homo sapiens; conditions: Homo sapiens, NCI-H1581;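 further: cell growth inhibition read out by a viability assay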
Description: SANGER: Inhibition of human NCI-H1581 cell growth in a cell viability assay.

NCI-H2126 = format: functional, cell-based, Homo sapiens; conditions: Homo sapiens, NCI-H2126;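 further: growth inhibition of the cancer cell line, determined with a cell viability readout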
Description: SANGER: Inhibition of human NCI-H2126 cell growth in a cell viability assay.

NCI-H23 = format: functional, cell-based, Homo sapiens; conditions: Homo sapiens, NCI-H23;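 further: cell viability assay measuring growth inhibition of NCI-H23 cells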
Description: SANGER: Inhibition of human NCI-H23 cell growth in a cell viability assay.

NCI-H446 = format: functional, cell-based, Homo sapiens; conditions: Homo sapiens, NCI-H446;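 further: growth inhibition of NCI-H446 cells determined by a cell viability assay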
Description: SANGER: Inhibition of human NCI-H446 cell growth in a cell viability assay.

NCI-H69 = format: functional, cell-based, Homo sapiens; conditions: Homo sapiens, NCI-H69;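 further: growth inhibition of the cell line, read out with a cell viability assay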
Description: SANGER: Inhibition of human NCI-H69 cell growth in a cell viability assay.

NCI-H82 = format: functional, cell-based, Homo sapiens; conditions: Homo sapiens, NCI-H82;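 further: growth inhibition of NCI-H82 cells, measured with a cell viability readout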
Description: SANGER: Inhibition of human NCI-H82 cell growth in a cell viability assay.

SNU-5 = format: functional, cell-based, Homo sapiens; conditions: Homo sapiens, SNU-5;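 further: cell viability readout used to measure growth inhibition in human NCI-SNU-5 cells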
Description: SANGER: Inhibition of human NCI-SNU-5 cell growth in a cell viability assay.

NEC8 = format: functional, cell-based, Homo sapiens; conditions: Homo sapiens, NEC8;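 further: growth inhibition of human NEC8 cells, read out by a cell viability assay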
Description: SANGER: Inhibition of human NEC8 cell growth in a cell viability assay.

NKM-1 = format: functional, cell-based, Homo sapiens; conditions: Homo sapiens, NKM-1;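 further: growth inhibition of NKM-1 cells, read out with a cell viability assay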
Description: SANGER: Inhibition of human NKM-1 cell growth in a cell viability assay.

OMC-1 = format: functional, cell-based, Homo sapiens; conditions: Homo sapiens, OMC-1;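 further: growth inhibition of the OMC-1 cell line, measured by a cell viability assay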
Description: SANGER: Inhibition of human OMC-1 cell growth in a cell viability assay.

P30-OHK = format: functional, cell-based, Homo sapiens; conditions: Homo sapiens, P30-OHK;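 further: growth inhibition of the P30-OHK cell line, read out with a cell viability assay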
Description: SANGER: Inhibition of human P30-OHK cell growth in a cell viability assay.

PSN1 = format: functional, cell-based, Homo sapiens; conditions: Homo sapiens, PSN1;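 further: suppression of growth of human PSN1 cells, read out by a cell viability assay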
Description: SANGER: Inhibition of human PSN1 cell growth in a cell viability assay.

RCC10RGB = format: functional, cell-based, Homo sapiens; conditions: Homo sapiens, RCC10RGB;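 further: growth inhibition of human RCC10RGB cells, read out by a cell viability assay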
Description: SANGER: Inhibition of human RCC10RGB cell growth in a cell viability assay.

RPMI-8226 = format: functional, cell-based, Homo sapiens; conditions: Homo sapiens, RPMI-8226
Description: SANGER: Inhibition of human RPMI-8226 cell growth in a cell viability assay.

SBC-1 = format: functional, cell-based, Homo sapiens; conditions: Homo sapiens, SBC-1;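 further: cell viability assay measuring growth inhibition of the SBC-1 cell line, IC50 being the concentration that halves growth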
Description: SANGER: Inhibition of human SBC-1 cell growth in a cell viability assay.

SK-MEL-1 = format: functional, cell-based, Homo sapiens; conditions: Homo sapiens, SK-MEL-1;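 further: growth inhibition of human SK-MEL-1 cells, read out by a cell viability assay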
Description: SANGER: Inhibition of human SK-MEL-1 cell growth in a cell viability assay.

SK-N-DZ = format: functional, cell-based, Homo sapiens; conditions: Homo sapiens, SK-N-DZ; read-out: IC50;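 further: growth inhibition of the cancer cell line, read out through a viability assay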
Description: SANGER: Inhibition of human SK-N-DZ cell growth in a cell viability assay.

SK-UT-1 = format: functional, cell-based, Homo sapiens; conditions: Homo sapiens, SK-UT-1;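 further: growth inhibition of SK-UT-1 cells, measured by a cell viability assay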
Description: SANGER: Inhibition of human SK-UT-1 cell growth in a cell viability assay.

SW 954 = format: functional, cell-based, Homo sapiens; conditions: Homo sapiens, SW 954;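 further: growth inhibition of SW954 human cancer cells, read out as cell viability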
Description: SANGER: Inhibition of human SW954 cell growth in a cell viability assay.

A3-KAW = format: functional, cell-based, Homo sapiens; conditions: Homo sapiens, A3-KAW;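 further: growth inhibition of human A3-KAW cells, read out with a cell viability assay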
Description: SANGER: Inhibition of human A3-KAW cell growth in a cell viability assay.

A388 = format: functional, cell-based; conditions: Homo sapiens;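 further: growth inhibition of human A388 cells, read out with a cell viability assay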
Description: SANGER: Inhibition of human A388 cell growth in a cell viability assay.

ALL-PO = format: functional, cell-based, Homo sapiens; conditions: Homo sapiens, ALL-PO;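 further: growth inhibition of ALL-PO cells, read out by a cell viability assay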
Description: SANGER: Inhibition of human ALL-PO cell growth in a cell viability assay.

BV-173 = format: functional, cell-based, Homo sapiens; conditions: Homo sapiens, BV-173
Description: SANGER: Inhibition of human BV-173 cell growth in a cell viability assay.

TE-10 = format: functional, cell-based, Homo sapiens; conditions: Homo sapiens, TE-10;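 further: growth inhibition of TE-10 cells, measured by a cell viability assay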
Description: SANGER: Inhibition of human TE-10 cell growth in a cell viability assay.

TE-8 = format: functional, cell-based, Homo sapiens; conditions: Homo sapiens, TE-8;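 further: growth inhibition of TE-8 cells, measured with a cell viability readout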
Description: SANGER: Inhibition of human TE-8 cell growth in a cell viability assay.

TGBC1TKB = format: functional, cell-based, Homo sapiens; conditions: Homo sapiens, TGBC1TKB;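 further: growth inhibition of TGBC1TKB cells, read out by a cell viability assay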
Description: SANGER: Inhibition of human TGBC1TKB cell growth in a cell viability assay.

VA-ES-BJ = format: functional, cell-based, Homo sapiens; conditions: Homo sapiens, VA-ES-BJ;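 further: growth inhibition of the VA-ES-BJ cell line, read out by a cell viability assay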
Description: SANGER: Inhibition of human VA-ES-BJ cell growth in a cell viability assay.

Compound: Cc1ccc(C(=O)Nc2ccc(CN3CCN(C)CC3)c(C(F)(F)F)c2)cc1C#Cc1cnc2cccnn12 [PONATINIB]
- pIC50 (CTB-1): 6.76
- pIC50 (Calu-6): < 6.29
- pIC50 (D283 Med): < 6.29
- pIC50 (DJM-1): < 6.29
- pIC50 (DOHH-2): 7.32
- pIC50 (EKVX): < 6.29
- pIC50 (EW-1): < 6.29
- pIC50 (EW-11): < 6.29
- pIC50 (HD-MY-Z): < 6.29
- pIC50 (HL-60): < 6.29
- pIC50 (HT): < 6.29
- pIC50 (HT-144): 6.50
- pIC50 (JVM-2): < 6.29
- pIC50 (KARPAS-45): 6.31
- pIC50 (KINGS-1): < 6.29
- pIC50 (KNS-42): < 6.29
- pIC50 (LOX IMVI): < 6.29
- pIC50 (Lu-65): < 6.29
- pIC50 (MEG-01): > 8.70
- pIC50 (MZ2-MEL): < 6.29
- pIC50 (NCI-H1092): < 6.29
- pIC50 (NCI-H1155): < 6.29
- pIC50 (NCI-H1581): < 6.29
- pIC50 (NCI-H2126): < 6.29
- pIC50 (NCI-H23): < 6.29
- pIC50 (NCI-H446): < 6.29
- pIC50 (NCI-H69): < 6.29
- pIC50 (NCI-H82): < 6.29
- pIC50 (SNU-5): < 6.29
- pIC50 (NEC8): < 6.29
- pIC50 (NKM-1): 8.18
- pIC50 (OMC-1): < 6.29
- pIC50 (P30-OHK): 6.80
- pIC50 (PSN1): < 6.29
- pIC50 (RCC10RGB): < 6.29
- pIC50 (RPMI-8226): < 6.29
- pIC50 (SBC-1): < 6.29
- pIC50 (SK-MEL-1): < 6.29
- pIC50 (SK-N-DZ): < 6.29
- pIC50 (SK-UT-1): < 6.29
- pIC50 (SW 954): < 6.29
- pIC50 (A3-KAW): < 6.29
- pIC50 (A388): < 6.29
- pIC50 (ALL-PO): 6.91
- pIC50 (BV-173): < 6.29
- pIC50 (TE-10): < 6.29
- pIC50 (TE-8): < 6.29
- pIC50 (TGBC1TKB): < 6.29
- pIC50 (VA-ES-BJ): < 6.29

Compound: COc1cc(N2CCC(N3CCN(C)CC3)CC2)ccc1Nc1ncc(Cl)c(Nc2ccccc2S(=O)(=O)C(C)C)n1 [TAE-684]
- pIC50 (CTB-1): < 5.70
- pIC50 (Calu-6): < 5.70
- pIC50 (D283 Med): 5.91
- pIC50 (DJM-1): < 5.70
- pIC50 (DOHH-2): 6.51
- pIC50 (EKVX): < 5.70
- pIC50 (EW-1): 6.99
- pIC50 (EW-11): < 5.70
- pIC50 (HD-MY-Z): < 5.70
- pIC50 (HL-60): 6.32
- pIC50 (HT): < 5.70
- pIC50 (HT-144): 5.79
- pIC50 (JVM-2): < 5.70
- pIC50 (KARPAS-45): 6.07
- pIC50 (KINGS-1): < 5.70
- pIC50 (KNS-42): < 5.70
- pIC50 (LOX IMVI): < 5.70
- pIC50 (Lu-65): < 5.70
- pIC50 (MEG-01): < 5.70
- pIC50 (MZ2-MEL): < 5.70
- pIC50 (NCI-H1092): < 5.70
- pIC50 (NCI-H1155): < 5.70
- pIC50 (NCI-H1581): < 5.70
- pIC50 (NCI-H2126): < 5.70
- pIC50 (NCI-H23): < 5.70
- pIC50 (NCI-H446): < 5.70
- pIC50 (NCI-H69): 5.81
- pIC50 (NCI-H82): < 5.70
- pIC50 (SNU-5): < 5.70
- pIC50 (NEC8): 6.38
- pIC50 (NKM-1): 5.77
- pIC50 (OMC-1): < 5.70
- pIC50 (P30-OHK): < 5.70
- pIC50 (PSN1): 6.71
- pIC50 (RCC10RGB): < 5.70
- pIC50 (RPMI-8226): 6.20
- pIC50 (SBC-1): < 5.70
- pIC50 (SK-MEL-1): < 5.70
- pIC50 (SK-N-DZ): 5.75
- pIC50 (SK-UT-1): < 5.70
- pIC50 (SW 954): 5.92
- pIC50 (A3-KAW): < 5.70
- pIC50 (A388): < 5.70
- pIC50 (ALL-PO): 6.61
- pIC50 (BV-173): < 5.70
- pIC50 (TE-10): 6.15
- pIC50 (TE-8): 6.37
- pIC50 (TGBC1TKB): < 5.70
- pIC50 (VA-ES-BJ): < 5.70
